Assay [1] deals with T1, CXCR2 (Homo sapiens, UniProt P25025).
T1 construct: expressed in transfected cells
T1 sequence (P25025 1-360): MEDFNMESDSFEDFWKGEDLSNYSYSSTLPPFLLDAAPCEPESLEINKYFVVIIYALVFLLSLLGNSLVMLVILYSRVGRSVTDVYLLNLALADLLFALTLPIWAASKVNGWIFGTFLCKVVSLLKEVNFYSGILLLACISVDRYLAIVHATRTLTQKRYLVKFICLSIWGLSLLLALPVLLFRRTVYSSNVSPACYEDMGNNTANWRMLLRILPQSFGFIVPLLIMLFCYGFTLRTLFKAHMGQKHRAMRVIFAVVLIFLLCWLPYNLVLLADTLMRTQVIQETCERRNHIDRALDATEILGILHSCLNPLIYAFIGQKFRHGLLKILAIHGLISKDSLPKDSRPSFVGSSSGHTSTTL
The assay is described as follows: NanoBRET-based G protein activation inhibition assay (REGA-SIGN Gαi1 dissociation) in HEK293A.CXCR2 cells. The conditions noted are these: normalized to Imax of navarixin = 100%, n = 3. It is filed as cell-based. The protocol: Cells were trypsinized and resuspended at 3 × 10^5 cell/mL in the growth medium, whereafter they were incubated for 2 hours at RT. Cells were transfected in suspension using FuGENE® HD Transfection Reagent at a 3:1 reagent to DNA ratio in Opti-MEMTM I Reduced-Serum Medium, with the final DNA concentration of 1 μg/μL. The transfection mixture was incubated for 10 min at RT before adding it to the cell suspension. Transfected cells were seeded at 3.0 × 10^4 cells/well in a white, clear, flat-bottom 96-well plate coated with 100 μg/mL poly-D-lysin ([…], Sigma Aldrich) and incubated for 48 h at 37°C and 5% CO2. […] (2023)]. Following the 48-h incubation period, cells were washed with the assay buffer. Compounds were serially diluted in 1:500 Nano-Glo® Vivazine^TM working solution (#N2581, Promega), and 90 μL of compound/Vivazine mix was added, followed by incubation for 45 min at 37°C and 5% CO2. Plates were transferred to the FLIPR Penta system (Molecular Devices) at 37°C, and all steps onward are automated and performed by the FLIPR Penta system. After a 10-min equilibration period, the baseline BRET signal was determined by five consecutive reads followed by automatic administration of 10 μL of 10× ligand (Table 1) to the cell plate. Changes in the BRET signal was measured for 10 min, with each read spaced by 2.5 s. […] BRET ratios were extracted from ScreenWorks software (Molecular Devices) and represent the ratio between the acceptor emission of […]2 or mNG (G protein or β-arrestin recruitment, respectively) and NLuc donor emission. The basal BRET ratio was defined as the average BRET ratio of the five consecutive readings preceding ligand addition. Changes in BRET values post ligand administration (ΔBRET) were calculated for each well as a percentage difference to the previously defined basal BRET ratio. Average ΔBRET values were baseline corrected by subtracting the average negative control BRET ratio (unstimulated condition). […] AUCs were normalized to the positive control (stimulated condition); whereafter, dose-response curves were fitted to log (inhibitor) vs response (three parameters) in GraphPad 10.2.0 (GraphPad Software). […] Calculation 1: calculation of the BRET signal. • 1. […] NC correctedΔBRET=Δ[…]. • 4. a. Neg AUC of NC correctedΔBRET=Gα activation read out. b. Pos AUC of NC correctedΔBRET=β-arrestin recruitment.

In assay [2] the target is T1, CXCR2. The assay is described as follows: Bias analysis (bias plot, bias index) of β-arrestin1 recruitment inhibition versus Gαi1 activation inhibition, navarixin as reference. The conditions noted are these: all ELR+ chemokines; navarixin as reference antagonist. The class given is cell-based. Here is the method: For signaling bias calculations, constraints were set to bottom values equal to zero. The calculated top values generated by nonlinear fit log (inhibitor) vs response (three parameters) in GraphPad 10.2.1 were taken as Imax. […] The bias index values were calculated, as is shown in calculation 2. Briefly, log(Imax/IC50) was calculated. […] Finally, the bias index was calculated by subtracting the ∆log (Imax/IC50) of the tested compound from the stated reference pathway from that of the pathway of interest. […] The statistical significance of H1 was evaluated using a one-sample T-test with Benjamini-Hochberg correction applied for multiple comparisons, whereas H2 was assessed using a one-way ANOVA followed by Tukey’s test.
Bias index=∆LogImax/IC50P1:β−arr1−∆LogImax/IC50P2:Gai1 .
Bias plots are equimolar comparisons between the two pathways of interest.

The target in assay [3] is T1, CXCR2. The assay is described as follows: NanoBRET β-arrestin1 recruitment inhibition assay (NanoLux) in HEK293A cells. It is filed as cell-based. The following applies: normalized to Imax of navarixin = 100%, n = 3. Here is the method:
Cells were trypsinized and resuspended at 3 × 10^5 cell/mL in the growth medium, whereafter they were incubated for 2 hours at RT. Cells were transfected in suspension using FuGENE® HD Transfection Reagent at a 3:1 reagent to DNA ratio in Opti-MEMTM I Reduced-Serum Medium, with the final DNA concentration of 1 μg/μL. The transfection mixture was incubated for 10 min at RT before adding it to the cell suspension. Transfected cells were seeded at 3.0 × 10^4 cells/well in a white, clear, flat-bottom 96-well plate coated with 100 μg/mL poly-D-lysin ([…], Sigma Aldrich) and incubated for 48 h at 37°C and 5% CO2. HEK293A cells were transiently co-transfected with plasmids encoding β-arrestin1 protein tagged with NLuc (donor) and CXCR2 protein tagged with mNeonGreen (mNG) acceptor in a 1:10 donor to acceptor ratio, as described previously ([Luís et al., 2022]). All subsequent steps are identical to those in “NanoBRET-based G protein activation inhibition assay,” which are described above. Measurements were acquired using a 440- to 480-nm donor emission filter (#0200-6179, Molecular Devices) and a 515- to 575-nm acceptor emission filter (#0200-6203, Molecular Devices) BRET ratios were extracted from ScreenWorks software (Molecular Devices) and represent the ratio between the acceptor emission of […]2 or mNG (G protein or β-arrestin recruitment, respectively) and NLuc donor emission. The basal BRET ratio was defined as the average BRET ratio of the five consecutive readings preceding ligand addition. Changes in BRET values post ligand administration (ΔBRET) were calculated for each well as a percentage difference to the previously defined basal BRET ratio. Average ΔBRET values were baseline corrected by subtracting the average negative control BRET ratio (unstimulated condition). […] AUCs were normalized to the positive control (stimulated condition); whereafter, dose-response curves were fitted to log (inhibitor) vs response (three parameters) in GraphPad 10.2.0 (GraphPad Software). […] Calculation 1: calculation of the BRET signal. • 1. […] NC correctedΔBRET=Δ[…]. • 4. a. Neg AUC of NC correctedΔBRET=Gα activation read out. b. Pos AUC of NC correctedΔBRET=β-arrestin recruitment.
(In general: BRET reads energy transfer from a luciferase to a nearby fluorophore.)

For assay [4], the target named is T1, CXCR2. More on the design: method as in Boon et al., 2024. The conditions noted are these: agonist concentration used in NanoBRET assays; ref Boon et al., 2024; cited from earlier work.
In assay [5] the target is T1, CXCR2. Further details: method as in Boon et al., 2024. The following applies: agonist concentration used in NanoBRET assays; ref Boon et al., 2024; cited from earlier work. The source holds these as a separate data set.

We go through eight molecules from article PMC12301332, “Biased antagonism of a series of bicyclic CXCR2 intracellular allosteric modulators” (Frontiers in Pharmacology, 2025).

`C[C@H](CO)Nc1nc(SCc2cccc(Cl)c2F)nc2[nH]c(=O)sc12` [AZ10397767, reference compound]: the “Imax Gαi1 (maximum observed inhibitory effect)” value is listed as 100% on CXCR2 [1] (CXCL1 at EC80); 100% at CXCR2 [1] (CXCL2 at EC80); 98.8% at CXCR2 [1] (CXCL3 at EC80); 95.7% on CXCR2 [1] (CXCL5 at EC80); 100% at CXCR2 [1] (CXCL6 at EC80); 100% on CXCR2 [1] (CXCL7 at EC80). Moreover, the “Imax Gαi1 (maximum observed inhibitory effect)” value at CXCR2 [1] (CXCL8 at EC80) is 98.5%. Also, on CXCR2 [2], the “bias profile (bias plot), β-arrestin1 recruitment inhibition vs Gαi1 activation inhibition” value is on record as “bias toward the inhibition of β-arrestin1 recruitment”. Also, the “Imax βarr1 (maximum observed inhibitory effect)” value on CXCR2 [3] (CXCL1 at EC80), on CXCR2 [3] (CXCL2 at EC80), on CXCR2 [3] (CXCL3 at EC80), on CXCR2 [3] (CXCL5 at EC80), at CXCR2 [3] (CXCL6 at EC80) and on CXCR2 [3] (CXCL7 at EC80) was 100% in each case. Also, the “Imax βarr1 (maximum observed inhibitory effect)” value on CXCR2 [3] (CXCL8 at EC80) came to 100%.
On to “CXCL1: recombinant human ELR+ chemokine, CXCR2 ligand (PeproTech)”, for which the “β-arrestin EC80” value with CXCR2 [4] is recorded as 59.18 nM. For the same molecule, the “G-protein EC80” value with CXCR2 [5] is reported as 3.20 nM.
For “CXCL2: recombinant human ELR+ chemokine, CXCR2 ligand (PeproTech)”, the “β-arrestin EC80” value with CXCR2 [4] is 147.8 nM. Moreover, in the assay with CXCR2 [5], the “G-protein EC80” value is listed as 2.15 nM.
As for “CXCL3: recombinant human ELR+ chemokine, CXCR2 ligand (PeproTech)”, the “β-arrestin EC80” value in the assay with CXCR2 [4] is recorded as 100.10 nM. The “G-protein EC80” value with CXCR2 [5] was 8.92 nM.
For the molecule “CXCL5: recombinant human ELR+ chemokine, CXCR2 ligand (PeproTech)”, in the assay with CXCR2 [4], the “β-arrestin EC80” value is 86.19 nM. Besides, the “G-protein EC80” value in the assay with CXCR2 [5] is recorded as 5.16 nM.
Regarding “CXCL6: recombinant human ELR+ chemokine, CXCR2 ligand (PeproTech)”, in the assay with CXCR2 [4], the “β-arrestin EC80” value is 168.00 nM. In addition, in the assay with CXCR2 [5], the “G-protein EC80” value is 17.12 nM.
For “CXCL8: recombinant human ELR+ chemokine, CXCR2 ligand (PeproTech)”, the “β-arrestin EC80” value with CXCR2 [4] is listed as 17.29 nM. For the same molecule, the “G-protein EC80” value with CXCR2 [5] is 4.16 nM.

B1: CXCL7: recombinant human ELR+ chemokine, CXCR2 ligand (PeproTech) (protein, UniProt P02775 59-128, looked up)
Neutrophil-activating peptide …: AELRCMCIKTTSGIHPKNIQSLEVIGKGTHCNQVEVIATLKDGRKICLDPDAPRIKKIVQKKLAGDESAD
modifications: Neutrophil-activating peptide 2
On to B1, for which, in the assay with CXCR2 [4], the “β-arrestin EC80” value is 100.70 nM. Besides, the “G-protein EC80” value with CXCR2 [5] is 4.09 nM.
